{"source": "patent US11208391B2", "about": "“Polymorphs and new path to synthesize Tafamidis” (AZAD PHARMA AG, priority 2018, dated 2021)", "assay": "Pressure resistance of the crystalline form (hydraulic press, then PXRD/DSC)", "assay_type": "physicochemical", "settings": "pressed 3-5 seconds at 1.5 MPa, Perkin Elmer hydraulic press, 13 mm stamp, material of method 1 (pentane/heptane), compared with non-pressed form", "method": "The diffraction measurements were performed at ambient conditions on a PANalytical X'Pert PRO θ-θ diffractometer of 240 mm of radius in reflection geometry, equipped with Cu Kα radiation and a PIXcel detector, operated at 45 kV and 40 mA. Each sample was mounted on a zero-background silicon holder and allowed to spin at 0.25 rev/s during data collection. The measurement angular range was 3.0-40.0° (2θ) with a step size of 0.013°. The scanning speed was 0.0821°/s (40.80 s/step).\nDry samples were pressed at the indicated pressures in a Perkin Elmer hydraulic press using a 13 mm stamp for a time period of 3-5 seconds.\nThe dried filter cake obtained by the above described method 1 was pressed for 3-5 seconds at 1.5 MPa using a Perkin Elmer hydraulic press and 13 mm tableting stamp. The resulting material was subjected to a DSC and a PXRD-experiment. The results are depicted in FIG. 13 (DSC) and FIG. 14 (PXRD). […] This feature renders this polymorph suitable for processing in the course of tableting, especially."}
{"smiles": "CNC[C@H](O)[C@@H](O)[C@H](O)[C@H](O)CO.O=C(O)c1ccc2nc(-c3cc(Cl)cc(Cl)c3)oc2c1", "note": "[crystalline Tafamidis meglumine, 2-(3,5-dichlorophenyl)-1,3-benzoxazole-6-carboxylic acid * (2R,3R,4R,5S)-6-(methyl-amino)-hexane-1,2,3,4,5-pentol]", "values": [{"measurement": "PXRD diffraction pattern / structure of the crystalline form upon pressure treatment", "result": "does not change upon pressure treatment"}, {"measurement": "PXRD diffraction pattern / structure of the crystalline form upon pressure treatment", "setting": "listed as crystalline form", "result": "insensitive to pressure"}]}
